Molecular target: ERα (Homo sapiens (Human), UniProt P03372)
Assay: ERα degradation (MCF7 cells), in-cell Western
Type: cell-based
Details: for IC50: inflection point of the degradation in response to ligand concentration; for IC50 / % ERα remaining: MCF7 cells; for % ERα remaining: remaining ERα protein at 10 μM ligand, relative to DMSO control; for ER Percentage remaining: degradation potential
Procedure: ERα Degradation (MCF7 Cells)
The column titled MCF7 IC50 reports the inflection point of the inhibition of transcription in MCF7 cells as described above. Percentage ERα remaining reports the remaining ERα protein measured at 10 μM concentration of the ligand as described above. The column ERα IC50 reports the inflection point of the degradation in response to the ligand concentration.

Sequence of ERα (P03372 whole entry): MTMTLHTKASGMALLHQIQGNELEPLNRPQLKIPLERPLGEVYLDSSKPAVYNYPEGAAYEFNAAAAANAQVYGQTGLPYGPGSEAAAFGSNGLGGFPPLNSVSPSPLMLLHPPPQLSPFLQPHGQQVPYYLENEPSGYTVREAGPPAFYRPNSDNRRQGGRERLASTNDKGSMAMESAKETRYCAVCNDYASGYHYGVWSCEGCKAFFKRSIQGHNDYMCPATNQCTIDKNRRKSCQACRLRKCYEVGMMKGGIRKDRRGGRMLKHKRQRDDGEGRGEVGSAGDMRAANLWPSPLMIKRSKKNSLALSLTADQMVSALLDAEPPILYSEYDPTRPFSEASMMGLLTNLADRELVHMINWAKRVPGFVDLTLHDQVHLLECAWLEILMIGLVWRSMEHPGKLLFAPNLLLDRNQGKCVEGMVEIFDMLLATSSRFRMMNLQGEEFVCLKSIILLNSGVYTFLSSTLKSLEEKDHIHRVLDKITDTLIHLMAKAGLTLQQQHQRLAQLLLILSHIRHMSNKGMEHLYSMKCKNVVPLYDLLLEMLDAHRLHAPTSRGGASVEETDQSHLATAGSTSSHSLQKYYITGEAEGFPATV

IC50 | % ERα remaining | ER Percentage remaining (comparison of linker length between phenyl and -C(O)OH) | ER Percentage remaining (comparison of X position) | SMILES
6 nM | 26% |  |  | Cc1c(O)cccc1-c1sc2cc(O)ccc2c1Oc1ccc(/C=C/C(=O)O)cc1 [Example 16, (E)-3-(4-((6-hydroxy-2-(3-hydroxy-2-methyl-phenyl)benzo[b]thiophen-3-yl)oxy)phenyl)-acrylic acid]
 | 37% |  |  | Cc1cc(/C=C/C(=O)O)ccc1Oc1c(-c2ccc(O)cc2)sc2cc(O)ccc12 [Example 57, (E)-3-(4-((6-hydroxy-2-(4-hydroxyphenyl)-benzo[b]thiophen-3-yl)oxy)-3-methylphenyl)acrylic acid]
 | 22% |  |  | O=C(O)/C=C/c1ccc(Oc2c(-c3cccc(F)c3)sc3cc(O)ccc23)cc1 [Example 7, (E)-3-(4-((2-(3-fluorophenyl)-6-hydroxybenzo[b]thiophen-3-yl)oxy)phenyl)-acrylic acid]
 | 26% |  |  | O=C(O)/C=C/c1ccc(Oc2c(-c3ccc(O)cc3)sc3cc(O)ccc23)cn1 [Example 29, (E)-3-(5-((6-hydroxy-2-(4-hydroxyphenyl)benzo[b]thiophen-3-yl)oxy)pyridin-2-yl)acrylic acid]
 |  | 41 Percentage |  | O=C(O)/C=C/c1ccc(Oc2c(-c3ccc(O)cc3)sc3cc(O)ccc23)cc1 [drawing 8]
30 nM | 17% |  |  | O=C(O)/C=C/c1ccc(Oc2c(-c3ccc(OC(F)(F)F)cc3)sc3cc(O)ccc23)cc1 [Example 59, (E)-3-(4-((6-hydroxy-2-(4-(trifluoromethoxy)-phenyl)benzo[b]thiophen-3-yl)oxy)phenyl)-acrylic acid]
70 nM | 24% |  |  | O=C(O)/C=C/c1ccc(Oc2c(-c3ccc(O)cc3)sc3c(F)c(O)ccc23)cc1 [Example 39, (E)-3-(4-((7-fluoro-6-hydroxy-2-(4-hydroxyphenyl)benzo[b]thiophen-3-yl)oxy)phenyl)acrylic acid]
85 nM | 21% |  |  | O=C(O)/C=C/c1ccc(Oc2c(-c3ccc(C(F)F)cc3)sc3cc(O)ccc23)cc1 [Example 27, (E)-3-(4-((2-(4-(difluoromethyl)phenyl)-6-hydroxybenzo[b]thiophen-3-yl)oxy)phenyl)acrylic acid]
 | 48% |  |  | NC(=O)/C=C/c1ccc(Oc2c(-c3ccc(O)cc3)sc3cc(O)ccc23)cc1 [Example 64, (E)-3-(4-((6-hydroxy-2-(4-hydroxyphenyl)-benzo[b]thiophen-3-yl)oxy)phenyl)acrylamide]
4 nM | 20% |  |  | Cc1ccccc1-c1sc2cc(O)ccc2c1Oc1ccc(/C=C/C(=O)O)cc1 [Example 5, (E)-3-(4-((6-hydroxy-2-(o-tolyl)benzo-[b]thiophen-3-yl)oxy)-phenyl)acrylic acid]
 | 30% |  |  | CN(c1ccc(/C=C/C(=O)O)cc1)c1c(-c2ccc(O)cc2)sc2cc(O)ccc12 [Example 30, (E)-3-(4-((6-hydroxy-2-(4-hydroxyphenyl)benzo[b]thiophen-3-yl)(methyl)amino)phenyl)acrylic acid]
 | 21% |  |  | O=C(O)/C=C/c1ccc(Oc2c(-c3ccc(Cl)cc3)sc3cc(O)ccc23)cc1 [Example 6, (E)-3-(4-((2-(4-chlorophenyl)-6-hydroxybenzo[b]thiophen-3-yl)oxy)phenyl)-acrylic acid]
 |  |  | 76 Percentage | O=C(O)/C=C/c1ccc(-c2c(-c3ccc(O)cc3)sc3cc(O)ccc23)cc1 [reference compound]
 | 28% |  |  | COC(=O)/C=C/c1ccc(Oc2c(-c3ccc(F)cc3)sc3cc(O)ccc23)cc1 [Example 36, (E)-methyl 3-(4-((2-(4-fluorophenyl)-6-hydroxybenzo[b]thiophen-3-yl)oxy)phenyl)-acrylate]
18 nM | 26% |  |  | Cc1cc(-c2sc3cc(O)ccc3c2Oc2ccc(/C=C/C(=O)O)cc2)ccc1O [Example 61, (E)-3-(4-((6-hydroxy-2-(4-hydroxy-3-methylphenyl)benzo[b]thiophen-3-yl)oxy)phenyl)acrylic acid]
347 nM | 36% |  |  | CNC(=O)/C=C/c1ccc(Oc2c(-c3ccc(F)cc3)sc3cc(O)ccc23)cc1 [Example 67, (E)-3-(4-((2-(4-fluorophenyl)-6-hydroxybenzo[b]thiophen-3-yl)oxy)phenyl)-N-methylacrylamide]
 |  |  | 60 Percentage | O=C(O)/C=C/c1ccc(C(=O)c2c(-c3ccc(O)cc3)sc3cc(O)ccc23)cc1 [reference compound]

More lines, now with the values behind:

SMILES | IC50 | % ERα remaining | ER Percentage remaining (comparison of linker length between phenyl and -C(O)OH) | ER Percentage remaining (comparison of X position)
Cn1nnnc1/C=C/c1ccc(Oc2c(-c3ccc(F)cc3)sc3cc(O)ccc23)cc1 [Example 52, (E)-2-(4-fluorophenyl)-3-(4-(2-(1-methyl-1H-tetrazol-5-yl)vinyl)phenoxy)benzo [b]thiophen-6-ol] | 223 nM | 41% |  | 
CCCn1nnnc1/C=C/c1ccc(Oc2c(-c3ccc(F)cc3C)sc3cc(O)ccc23)cc1 [Example 53, (E)-2-(4-fluoro-2-methylphenyl)-3-(4-(2-(1-propyl-1H-tetrazol-5-yl)vinyl)phenoxy) benzo[b]thiophen-6-ol] |  | 43% |  | 
Cc1cc(C)cc(-c2sc3cc(O)ccc3c2Oc2ccc(/C=C/C(=O)O)cc2)c1 [Example 23, (E)-3-(4-((2-(3,5-dimethylphenyl)-6-hydroxybenzo[b]thiophen-3-yl)oxy)phenyl)-acrylic acid] | 30 nM | 22% |  | 
Cc1cc(F)ccc1-c1sc2cc(O)ccc2c1Oc1ccc(/C=C/c2nnc(C3CC3)o2)cc1 [Example 76, (E)-3-(4-(2-(5-cyclopropyl-1,3,4-oxadiazol-2-yl)vinyl)phenoxy)-2-(4-fluoro-2-methylphenyl)benzo[b] thiophen-6-ol] | 47 nM | 42% |  | 
Cc1cc(F)ccc1-c1sc2cc(O)ccc2c1Oc1ccc(/C=C/c2nnnn2C)cc1 [Example 51, (E)-2-(4-fluoro-2-methylphenyl)-3-(4-(2-(1-methyl-1H-tetrazol-5-yl)vinyl)phenoxy)-benzo[b]thiophen-6-ol] | 11 nM | 41% |  | 
C[C@H](O)c1ccccc1-c1sc2cc(O)ccc2c1Oc1ccc(/C=C/C(=O)O)cc1 [Example 25, (S,E)-3-(4-((6-hydroxy-2-(2-(1-hydroxyethyl)phenyl)benzo[b]thiophen-3-yl)oxy)phenyl)acrylic acid] | 6 nM | 22% |  | 
O=C(O)/C=C/c1ccc(Oc2c(-c3ccc(C(F)(F)F)cc3C(F)(F)F)sc3cc(O)ccc23)cc1 [Example 11, (E)-3-(4-((2-(2,4-bis(trifluoromethyl)phenyl)-6-hydroxy-benzo[b]thiophen-3-yl)oxy)phenyl)-acrylic acid] | 1 nM | 15% |  | 
Cc1nnc(/C=C/c2ccc(Oc3c(-c4ccc(F)cc4C)sc4cc(O)ccc34)cc2)[nH]1 [Example 49, (E)-2-(4-fluoro-2-methylphenyl)-3-(4-(2-(5-methyl-4H-1,2,4-triazol-3-yl)vinyl)phenoxy)benzo[b]thiophen-6-ol] |  | 28% |  | 
Cc1ccc(C)c(-c2sc3cc(O)ccc3c2Oc2ccc(/C=C/C(=O)O)cc2)c1 [Example 14, (E)-3-(4-((2-(2,5-dimethylphenyl)-6-hydroxybenzo[b]thiophen-3-yl)oxy)phenyl)-acrylic acid] | 6 nM | 15% |  | 
Cc1noc(C)c1-c1sc2cc(O)ccc2c1Oc1ccc(/C=C/C(=O)O)cc1 [Example 15, (E)-3-(4-((2-(3,5-dimethylisoxazol-4-yl)-6-hydroxybenzo-[b]thiophen-3-yl)oxy)-phenyl)acrylic acid] | 12 nM | 20% |  | 
COCc1ccccc1-c1sc2cc(O)ccc2c1Oc1ccc(/C=C/C(=O)O)cc1 [Example 80, (E)-3-(4-((6-hydroxy-2-(2-(methoxymethyl)phenyl)benzo[b]thiophen-3-yl)oxy)phenyl)acrylic acid] |  | 14% |  | 
CNC(=O)/C=C/c1ccc(Oc2c(-c3ccc(C(F)(F)F)cc3)sc3cc(O)ccc23)cc1 [Example 63, (E)-3-(4-((6-hydroxy-2-(4-(trifluoromethyl)-phenyl)benzo[b]thiophen-3-yl)oxy)phenyl)-N-methylacrylamide] | 24 nM | 26% |  | 
Cc1nnc(/C=C/c2ccc(Oc3c(-c4ccc(F)cc4C)sc4cc(O)ccc34)cc2)o1 [Example 46, (E)-2-(4-fluoro-2-methylphenyl)-3-(4-(2-(5-methyl-1,3,4-oxadiazol-2-yl)vinyl)phenoxy)benzo[b]thiophen-6-ol] | 5 nM | 41% |  | 
CCc1cccc(CC)c1-c1sc2cc(O)ccc2c1Oc1ccc(/C=C/C(=O)O)cc1 [Example 130, (E)-3-(4-((2-(2,6-diethylphenyl)-6-hydroxybenzo[b]thiophen-3-yl)oxy)phenyl)acrylic acid] |  | 12% |  | 
CCOC(=O)/C=C/c1ccc(Oc2c(-c3ccc(O)cc3)sc3cc(O)ccc23)c(C)c1 [Example 35, (E)-ethyl 3-(4-((6-hydroxy-2-(4-hydroxyphenyl)benzo[b]thiophen-3-yl)oxy)-3-methylphenyl)acrylate] |  | 33% |  | 
O=C(O)CCc1ccc(Oc2c(-c3ccc(O)cc3)sc3cc(O)ccc23)cc1 [Example 1, 3-(4-((6-hydroxy-2-(4-hydroxyphenyl)-benzo[b]thiophen-3-yl)oxy)phenyl)propanoic acid] | 31 nM | 58% |  | 
CC(C)c1ccccc1-c1sc2cc(O)ccc2c1Oc1ccc(/C=C/C(=O)O)cc1 [Example 4, (E)-3-(4-((6-hydroxy-2-(2-isopropylphenyl)benzo[b]thiophen-3-yl)oxy)phenyl)acrylic acid] | 0.4 nM | 13% |  | 
CCOC(=O)/C=C/c1ccc(Oc2c(-c3ccc(O)cc3)sc3cc(O)ccc23)cc1C [Example 34, (E)-ethyl 3-(4-((6-hydroxy-2-(4-hydroxyphenyl)benzo[b]thiophen-3-yl)oxy)-2-methylphenyl)acrylate] | 112 nM | 42% |  | 

From patent US10058534B2, “Benzothiophene derivatives and compositions thereof as selective estrogen receptor degraders” (NOVARTIS AG, priority 2013, dated 2018)
